Experimental data published in PubChem BioAssay AID192 (DTP/NCI, 2004).
“And” between values parts separate entries of the source, which are not always exact repeats. Equal values may be shown once. Toxic doses and inconclusive results are not listed. The calls were made as follows: active = survival T/C of 150% or more; inactive = T/C below 125% in these data. Square brackets hold non-standard residues; d marks the D form. Peptide text beside a SMILES is read from it. * marks the point of attachment. ξ: configuration not given here. Boc = CC(C)(C)OC(=O)*; ξP = O=C(O)C1CCCN1

Tested on: BDF1 mice, B16 melanoma ip, median survival T/C
Assay: NCI In Vivo Anticancer Drug Screen. Data for tumor model B16 Melanoma (intraperitoneal) in B6D2F1 (BDF1) mice
Details: endpoint: median survival time, schedule: Q01DX009 (ip), higher = longer survival
In short: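 Mice with transplantable tumors; drug vs vehicle groups; endpoint survival or tumor size; value = T/C.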

[1] = dose: 6.25 mg/kg/injection, vehicle: saline
[2] = dose: 12.5 mg/kg/injection, vehicle: saline
[3] = dose: 25.0 mg/kg/injection, vehicle: saline
[4] = dose: 50.0 mg/kg/injection, vehicle: saline
[5] = dose: 12.5 mg/kg/injection, vehicle: saline with Tween-80
[6] = dose: 50.0 mg/kg/injection, vehicle: saline with Tween-80
[7] = dose: 100.0 mg/kg/injection, vehicle: saline with Tween-80
[8] = dose: 100.0 mg/kg/injection, vehicle: saline
[9] = dose: 200.0 mg/kg/injection, vehicle: saline

Measured: T/C

C=C1CC2(OC1=O)C(=O)N(C)c1ccc(I)cc12 (centres undefined)
inactive: [1] 100 % of control and 104 % of control | [2] 101 % of control and 112 % of control | [3] 95 % of control and 104 % of control | [4] 110 % of control

O=C(O)C1CC(c2ccccc2)=NN1c1ccccc1 (centres undefined)
inactive: dose: 12.5 mg/kg/injection, vehicle: water 104 % of control | dose: 25.0 mg/kg/injection, vehicle: water 99 % of control and 100 % of control | dose: 50.0 mg/kg/injection, vehicle: water 99 % of control | dose: 100.0 mg/kg/injection, vehicle: water 97 % of control and 110 % of control | dose: 200.0 mg/kg/injection, vehicle: water 104 % of control and 110 % of control

CN1CCN(Cc2nc3cccc4c3c([n+]2[O-])-c2ccccc2-4)CC1
inactive: [5] 101 % of control | dose: 25.0 mg/kg/injection, vehicle: saline with Tween-80 95 % of control | [6] 105 % of control | [7] 112 % of control | dose: 200.0 mg/kg/injection, vehicle: saline with Tween-80 116 % of control

c1ccc([C@H]2CN3CCSC3=N2)cc1
inactive: dose: 0.15 mg/kg/injection, vehicle: saline 97 % of control | dose: 0.31 mg/kg/injection, vehicle: saline 89 % of control and 102 % of control | dose: 0.63 mg/kg/injection, vehicle: saline 102 % of control | dose: 1.25 mg/kg/injection, vehicle: saline 102 % of control | dose: 2.5 mg/kg/injection, vehicle: saline 103 % of control | dose: 5.0 mg/kg/injection, vehicle: saline 89 % of control | dose: 10.0 mg/kg/injection, vehicle: saline 89 % of control | dose: 20.0 mg/kg/injection, vehicle: saline 107 % of control | dose: 40.0 mg/kg/injection, vehicle: saline 86 % of control

Cc1cnc(=S)[nH]c1N
inactive: dose: 50.0 mg/kg/injection, vehicle: Klucel (hydroxypropylcellulose) (HPC) 108 % of control | dose: 100.0 mg/kg/injection, vehicle: Klucel (hydroxypropylcellulose) (HPC) 97 % of control | dose: 200.0 mg/kg/injection, vehicle: Klucel (hydroxypropylcellulose) (HPC) 94 % of control

COC(=O)C1CCCN1C(=O)CNC(=O)OC(C)(C)C (stereo not drawn) (Boc-Gly-[ξP]-OMe)
inactive: [4] 94 % of control | [8] 103 % of control | [9] 91 % of control | dose: 400.0 mg/kg/injection, vehicle: saline 88 % of control

O=[N+]([O-])c1cc(Br)cc2c1nc(Cl)c1ccccc12
inactive: [6] 94 % of control | [7] 88 % of control

C=C(C)C12OC3(c4ccccc4)OC1C1C4OC4(CO)C(O)C4(O)C(=O)C(C)=CC4C1(O3)C(C)C2OC(=O)c1ccccc1 (centres undefined)
inactive: dose: 0.1 mg/kg/injection, vehicle: saline with Tween-80 99 % of control | dose: 0.2 mg/kg/injection, vehicle: saline with Tween-80 101 % of control | dose: 0.4 mg/kg/injection, vehicle: saline with Tween-80 98 % of control

CC[n+]1ccc(/C=C\c2c(Cl)cccc2Cl)cc1
inactive: dose: 6.25 mg/kg/injection, vehicle: Klucel (hydroxypropylcellulose) (HPC) 94 % of control | dose: 12.5 mg/kg/injection, vehicle: Klucel (hydroxypropylcellulose) (HPC) 88 % of control | dose: 25.0 mg/kg/injection, vehicle: Klucel (hydroxypropylcellulose) (HPC) 88 % of control

O=C(CCCN1CCN(c2ccccc2)CC1)c1ccc(F)cc1
inactive: [2] 112 % of control | [3] 115 % of control | [4] 107 % of control | [8] 102 % of control | [9] 100 % of control

CC(C)CNc1ccc(S(=O)(=O)c2ccc(NCC(C)C)c([N+](=O)[O-])c2)cc1[N+](=O)[O-]
inactive: dose: 3.13 mg/kg/injection, vehicle: saline with Tween-80 100 % of control | dose: 6.25 mg/kg/injection, vehicle: saline with Tween-80 93 % of control | [1] 93 % of control | [5] 89 % of control | [3] 88 % of control

COc1cc2ccc3c4cc5c(cc4c[n+](C)c3c2cc1OC)OCO5
inactive: dose: 10.0 mg/kg/injection, vehicle: Klucel (hydroxypropylcellulose) (HPC) 104 % of control
